Columns and labels:
PBMC [1] = test: Cytokine production of PBMC preincubated with GM-6001 and stimulated with K or D ODN (ELISA); format: cell-based, human; settings: 50 μM preincubation, 24 hours
Experimental: (§1) FIGS. 7A-7B are a plot and a bar graph showing the metalloproteinase inhibitor GM-6001 enhances CXCL16 expression and subsequent cytokine production induced by D ODN. PBMC were preincubated in the absence (open bars) or presence (filled bars) of GM-6001 (50 μM) for 30 minutes, washed and then stained for CXCL16 expression on pDC (see FIG. 7A) or stimulated with 1 μM of K or 3 μM D ODN for 24 hours (FIG. 7B). Cytokine production (IL-6 for K ODN and IFN-α D ODN) was assessed from culture supernatants using ELISA. Individual results from six different PBMC are shown.
(§2) CXCL16 expressed on the cell surface is cleaved by the metalloproteinase ADAM-10 (Abel et al., J Immunol. 2004 172(10):6362-72, 2004; Gough et al., J Immunol. 172(6):3678-85, 2004). […] Based on the observation that pDC expressing high levels of CXCL16 were more responsive to D ODN stimulation, human PBMC were incubated with GM6001 followed by K or D ODNs.

pDC [2] = test: CXCL16 expression on pDC after preincubation of PBMC with GM-6001; format: cell-based, human; settings: 50 μM, 30 minutes preincubation of PBMC
Experimental: as §1, §2

[3] = Cytokine induction by D ODN (statement in the description); format: cell-based; settings: no test described
PBMC [4] = test: CpG ODN induced cytokine secretion (TNF-α, IFN-α) in the absence or presence of scavenger receptor ligands; format: cell-based, human; settings: 50 μg/ml inhibitor
Experimental: (§3) FIGS. 3A-3D are bar graphs and plots showing the effect of scavenger receptor ligands on the binding and activity of CpG ODN. […] Mean fluorescence intensity representing binding of FITC-ODN was assessed using flow cytometry. Results represent the mean±S.D of three independent experiments. […] Open bars: medium; dotted bars: chondroitin sulfate; right-striped bars: fucoidan; left-striped bars: dextran sulfate Production of IFN-α from PBMC (in the absence or presence of 50 μg/ml inhibitors) was determined by ELISA from 24 hour culture supernatants. […] TNF-α production was determined using intracytoplasmic cytokine staining (representative plots of three independent experiments). FIG. 3D is a plot showing the results obtained when purified pDC were incubated with 1 μM each of K or with 3 μM D ODN in the absence or presence of 50 μg/ml dextran sulfate. Upregulation of HLA-DR/CD54 was determined 24 hours later using flow cytometry.

pDC [5] = test: Upregulation of HLA-DR/CD54 on purified pDC by CpG ODN in the absence or presence of dextran sulfate; format: cell-based, human; settings: 24 hours, 50 μg/ml inhibitor
Experimental: as §3

pDC [6] = test: Binding of FITC conjugated CpG ODN to purified pDC in the presence of scavenger receptor ligands (flow cytometry); format: cell-based, human; settings: 50 μg/ml inhibitor, preincubated 20 min at 4° C., mean ± S.D
Experimental: FIGS. 3A-3D are bar graphs and plots showing the effect of scavenger receptor ligands on the binding and activity of CpG ODN. FIG. 3A is a bar graph of the results obtained when purified pDC were preincubated (20 minutes at 4° C.) with medium or with 50 μg/ml each of inhibitors followed by addition of 1 μM FITC conjugated ODN. Mean fluorescence intensity representing binding of FITC-ODN was assessed using flow cytometry. Results represent the mean±S.D of three independent experiments. FIG. 3B is a bar graph showing D ODN induced IFN-α from peripheral blood mononuclear cells (PBMC). Open bars: medium; dotted bars: chondroitin sulfate; right-striped bars: fucoidan; left-striped bars: dextran sulfate Production of IFN-α from PBMC (in the absence or presence of 50 μg/ml inhibitors) was determined by ELISA from 24 hour culture supernatants. FIG. 3C is a plot showing K ODN induced TNF-α production in pDC (in the absence or presence of 50 μg/ml dextran sulfate). TNF-α production was determined using intracytoplasmic cytokine staining (representative plots of three independent experiments). FIG. 3D is a plot showing the results obtained when purified pDC were incubated with 1 μM each of K or with 3 μM D ODN in the absence or presence of 50 μg/ml dextran sulfate. Upregulation of HLA-DR/CD54 was determined 24 hours later using flow cytometry.
To evaluate whether a scavenger receptor (SR) played a role in D ODN uptake and signaling, the ability of dextran sulfate and fucoidan (classical scavenger receptor ligands) to block the binding of CpG ODN to pDC was evaluated (Table 2 and Supplementary FIG. 3A).

[7] = D ODN: 1 μM FITC conjugated ODN

## CNC(=O)[C@H](Cc1c[nH]c2ccccc12)NC(=O)[C@@H](CC(=O)NO)CC(C)C [GM6001]
PBMC [1]; 1 μM K ODN
  effect on cells stimulated with K ODN (IL-6 production): no effect
PBMC [1]; 3 μM D ODN
  increase of D ODN responsiveness of pDCs (IFN-α production): 2 fold
pDC [2]
  expression of CXCL16 on pDC: increased

## DV113: D ODN GGTGCATCGATACAGGGGGG (SEQ ID NO: 6) (DNA, backbone not given here; underlined bases phosphodiester, further chemistry not fully specified)
[3]
  induction of IFN-γ and IFN-α: high levels

## Dextran sulfate
PBMC [4]; D ODN induced IFN-α production from PBMC, ELISA
  % inhibition of cytokine secretion: 90.3 ± 8.4%
PBMC [4]; K ODN induced TNF-α production, intracytoplasmic staining
  % inhibition of cytokine secretion: 5.8 ± 2.3%
pDC [5]; 1 μM K ODN
  % inhibition in the generation of HLA-DR/CD54 double positive cells: 0.8 ± 1.8%
pDC [5]; 3 μM D ODN
  % inhibition in the generation of HLA-DR/CD54 double positive cells: 92.3 ± 5.8%
pDC [6]; [7]
  % inhibition of binding to pDC: > 50%
pDC [6]; D ODN: 1 μM FITC conjugated ODN, listed as Dextran Sulfate
  % inhibition of binding to pDC: 65.02 ± 5.8%
pDC [6]; K ODN: 1 μM FITC conjugated ODN
  % inhibition of binding to pDC: not
pDC [6]; K ODN: 1 μM FITC conjugated ODN, listed as Dextran Sulfate
  % inhibition of binding to pDC: 23.2 ± 8.8%

## chondroitin sulfate
pDC [6]; [7]
  % inhibition of binding to pDC: not
